Where “and” joins values, the source holds several entries; their conditions need not be identical. Equal values may be shown once. Where a name gives a salt, the structure may show the parent alone. Read-outs that look alike come from different tables or passages of the source.
What was measured:
α1 = test: in vitro α1 binding, [3H]WB-4101 (Table IV)
Experimental: (§1) In this Example the compounds of Examples I-XI were tested in vitro for α1 and α2 binding. The compound of Example I was tested as its monochloride 2-propanolate hydrate, i.e. as C22 […] CLN4 O4 S .HCl.0.2(CH3)2 CHOH 0.15H2 O. In the testing specific brain tissues were prepared as sources of binding sites. Aliquots of the washed members are incubated with a low concentration of […]. After incubation at suitable temperature, the reaction mixture is treated to separate the membrane-bound radioligand Radioactivity is measured. Linear regression analysis of the probit value for the percent of binding occurring in the presence of varying concentrations of the compound of interest plotted against the concentration of the compound yields concentrations which inhibit 50% specific binding, the IC50. The assay buffer is 50 mM Hepes.KOH, pH 7.4. The ligand is [^3 H]WB-4101 from New England Nuclear for α1 and [^3 H]Clonidine from New England Nuclear for α2. The results are considered against phentolamine methanesulfonate (Reference) which is considered a good α-binder.

α2 = test: in vitro α2 binding, [3H]Clonidine (Table IV)
Experimental: as §1

[1] = conscious rat diuretic screen of Lipschitz (Table I); type: in vivo, rat (female Sprague Dawley; male Okamoto-Aoki); conditions: female Sprague Dawley rats; for response vs control in vivo at 3 mg/kg / response vs control in vivo at 30 mg/kg / response vs control in vivo at 0.3 mg/kg: Rattus norvegicus, po
Experimental: With respect to diuretic utility there can be mentioned the conscious rat diuretic screen of Lipschitz, et al. (J. Pharmacol. Exp. Therap. 79, 97-110 (1943)). In this test, dose response assays of diuretic, natruiretic and kaliuretic activity are determined by oral administration of the test substance. The compounds synthesized in Examples I-XI were tested for diuretic […]. The compound of Example I was tested as its monohydrochloride 2-propanolate hydrate, i.e. as C22 […] ClN4 O4 S.HCl. 0.2(CH3)2 CHOH.0.15H2 O. Testing was carried out by the diuretic screen of Lipschitz, et al. described previously. In Table I below Volume Ratio is the ratio of total volume excreted for the test comuound compared to the total volume excreted for the control, Na^+ Ratio is the Na^+ excreted for the test compound compared to the Na^+ excreted for the control, K^+ Ratio is the K^+ excreted for the test compound compared to the K^+ excreted for the control. Female Sprague Dawley rats were used in Test Nos. 1, 2, 6, 7, 11-29. Male Okamoto-Aoki rats were used in Test Nos. 3-5 and 8-10 and testing for antihypertensive activity was carried out simultaneously on the Test Nos. 3-5 rats. In some instances, compounds were retested at the same dose level.

[2] = system: Spontaneously Hypertensive rat; test: antihypertensive activity, Spontaneously Hypertensive Rat (Table II); type: in vivo; conditions: for ΔBP 2 hours / ΔBP 4 hours / ΔHR 2 hours / ΔHR 4 hours / peak change at 2 hours in ΔBP: SHR, 30 mg/kg oral; for antihypertensive effect (in words): conclusion from Table II (SHR, and DOCA for Examples I-IV)
Experimental: Spontaneously Hypertensive Rat Male rats weighing 300-400 g, previously conditioned to the procedure, are prewarmed in a heating chamber (30° C.) for 10-20 min. and subsequently restrained in a wire holder at that temperature. Systolic blood pressure and heart rate are measured by the tailcuff technique using a pneumatic pulse transducer and a biotachometer before, and 2, 4, and 24 hours after oral administration of vehicle (0.25% Methocel in water) or test compounds suspended in vehicle at a dose volume equivalent to 5 ml/kg. Blood pressure and heart rate data are reported as changes from zero-hour measurements with vehicle control groups run periodically to confirm that the vehicle has no effect. Testing was carried out on the compounds of Examples I-XII for antihypertensive activity. In the case of all the compounds testing was carried out on the Spontaneously Hypertensive rat as described hereinbefore. In the case of the compounds of Examples I-IV testing was also carried out on the DOCA-salt Hypertensive Rat. The compound of Example I was tested as its monochloride 2-propanolate hydrate, i.e. as C22 […] ClN4 O4 S.HCl.0.2(CH3)2 CHOH.0.15H2 O in Tests 1-5; and as the 3/4 mole hydrochloride, i.e. C22 […] ClN4 O4 S: 3/4 HCl in Tests 3a, 4a, 5a-5d. Test results are set forth in Table II below wherein SHR stands for Spontaneously Hypertensive rat, DOCA stands for DOCA-salt Hypertensive Rat, ΔBP stands for the change in systolic blood pressure in mm Hg, ΔHR stands for the change in mean heart rate in beats per minute and the times set forth are the times after dosing. A peak change in ΔBP of more than 20 is considered as indicating activity.

[3] = system: α blocking activity (phenylephrine); test: in vivo α blocking activity, phenylephrine (PE) as α-agonist (Table III); parameters: species or system rat; ED50: unit not given beside the values; conditions: for in vivo α blocking activity (in words): conclusion from Table III
Experimental: In this example the compounds of Examples I (modified), II, III, V, VI, VII, VIII, IX and XI were tested in rats for in vivo α blocking activity according to methodology described at page 312 of Deitchman, et al., Journal of Pharmacological Methods, 3, 311-321 (1980). In this test phenylephrine (PE below) or norepinephrine (NE below) was administered as an α-agonist to the rats before and after dosing with the test drug and the average interpolated dose or PE/NE effecting a 50 mm Hg increase in mean arterial blood pressure was determined. Table III below records the results. In such Table, ED50 stands for such average interpolated dose and Average Dose Shift stands for the average ratio of ED50 after drug administration to ED50 before drug administration. The compound of Example I was tested as its monochloride 2-propanolate hydrate, i.e. as C22 H27 ClN4 O4 S.HCl 0.2(CH3)2 CHOH.0.15H2 O in Tests 1-5 and as the 3/4 mole hydrochloride, i.e. C22 H27 ClN 4 O4 S.3/4HCL in Tests 2a and 3a. The route was intravenous except in the case of the runs of Test Nos. 2a, 3, 3a, 26-29 the route was oral.

[4] = 3 mg/kg oral, read-out: K+ Ratio
[5] = 3 mg/kg oral, read-out: Na+ Ratio
[6] = 3 mg/kg oral, read-out: Volume Ratio
[7] = 30 mg/kg oral, read-out: K+ Ratio
[8] = 30 mg/kg oral, read-out: Na+ Ratio
[9] = 30 mg/kg oral, read-out: Volume Ratio
[10] = ED50 after/before drug, PE, dose 10, intravenous
[11] = [3H]WB-4101, brain tissue, 50 mM Hepes.KOH, pH 7.4, read-out: α1 Binding IC50
[12] = [3H]Clonidine, brain tissue, 50 mM Hepes.KOH, pH 7.4, read-out: α2 Binding IC50

Row | SMILES | IC50 (α1; [11]) [nM] | IC50 (α2; [12]) [nM] | Urinary Na/K (Test Compound) ([1]; 3 mg/kg oral) | Urinary Na/K (Test Compound) ([1]; 30 mg/kg oral) | response vs control in vivo at 3 mg/kg [1, 4] [%] | response vs control in vivo at 3 mg/kg [1, 5] [%] | response vs control in vivo at 3 mg/kg [1, 6] [%] | response vs control in vivo at 30 mg/kg [1, 7] [%] | response vs control in vivo at 30 mg/kg [1, 8] [%] | response vs control in vivo at 30 mg/kg [1, 9] [%] | ΔBP 2 hours [2] [mm Hg] | ΔBP 4 hours [2] [mm Hg] | ΔHR 2 hours [2] [beats per minute] | ΔHR 4 hours [2] [beats per minute] | Average Dose Shift [3, 10] | antihypertensive effect (in words) [2] | other results
1 | Cc1ccc(N(CC2=NCCN2)c2cccc(O)c2)cc1 [phentolamine methanesulfonate, reference compound] | – | – | – | – | – | – | – | – | – | – | – | – | – | – | – | – | IC50 (α1; phentolamine methanesulfonate reference run in the α1 tests, read-out: Reference IC50): 3.68 nM and 3.47 nM and 4.76 nM; IC50 (α2; phentolamine methanesulfonate reference run in the α2 tests, read-out: Reference IC50): 5.45 nM and 3.12 nM
2 | Cl.NS(=O)(=O)c1cc2c(cc1Cl)CN(CCCN1CCN(C(=O)c3ccccc3)CC1)C2=O.O [Example VII, 1-[3-[5-(aminosulfonyl)-6-chloro-1,3-dihydro-3-oxo-2H-isoindol-2-yl]propyl]-4-benzoylpiperazine hydrochloride monohydrate] | 152000 | > 1000 | 2.07 | 3.27 | 113 | 92 | 89 | 111 | 140 | 112 | -7 ± 8 | -14 ± 3 | -32 ± 14 | -74 ± 24 | > 1.0 | – | ED50 ([3]; ED50 of PE after test drug, dose 10, intravenous): 2.6
3 | COc1ccc(F)cc1N1CCN(CCCN2Cc3cc(Cl)c(S(N)(=O)=O)cc3C2=O)CC1 [Example XII, 6-chloro-2,3-dihydro-2-[3-[4-(3-fluoro-6-methoxyphenyl)-1-piperazinyl]propyl]-3-oxo-1H-isoindole-5-sulfonamide] | – | – | – | – | – | – | – | – | – | – | – | – | – | – | – | good antihypertensive effect without significantly affecting heart rate | peak change at 2 hours in ΔBP [2]: -64 mm Hg
4 | NS(=O)(=O)c1cc2c(cc1Cl)CN(CCCN1CCN(C(=O)c3ccc(F)cc3)CC1)C2=O [Example VIII, 1-[3-[5-(Aminosulfonyl)-6-chloro-1,3-dihydro-3-oxo-2H-isoindol-2-yl]propyl]-4-(4-fluorobenzoyl)piperazine] | 144000 | > 1000 | 2.60 | 3.69 | 94 | 98 | 89 | 99 | 142 | 122 | -9 ± 5 | -9 ± 4 | 2 ± 15 | 24 ± 15 | 1 ± 0.1 | – | –
5 | NS(=O)(=O)c1cc2c(cc1Cl)CN(CCCN1CCN(Cc3ccccc3)CC1)C2=O [Example V, 6-chloro-2,3-dihydro-3-oxo-2-[3-[4-(phenylmethyl)-1-piperazinyl]propyl]-1H-isoindole-5-sulfonamide] | 933 | 1780 | – | 4.14 | – | 145 | 128 | 133 | 271 | 220 | -27 ± 10 | -30 ± 14 | -6 ± 15 | -39 ± 14 | 1.7 ± 0.3 | good antihypertensive effect without significantly affecting heart rate | Urinary Na/K (Test Compound) ([1]; 0.3 mg/kg oral): 2.33; response vs control in vivo at 0.3 mg/kg ([1]; 0.3 mg/kg oral, read-out: K+ Ratio): 99%; response vs control in vivo at 0.3 mg/kg ([1]; 0.3 mg/kg oral, read-out: Na+ Ratio): 97%; response vs control in vivo at 0.3 mg/kg ([1]; 0.3 mg/kg oral, read-out: Volume Ratio): 89%

More lines, in order of falling IC50 (α1; [11]), values ahead:

Row | IC50 (α1; [11]) [nM] | IC50 (α2; [12]) [nM] | SMILES | Urinary Na/K (Test Compound) ([1]; 3 mg/kg oral) | Urinary Na/K (Test Compound) ([1]; 30 mg/kg oral) | response vs control in vivo at 3 mg/kg [1, 4] [%] | response vs control in vivo at 3 mg/kg [1, 5] [%] | response vs control in vivo at 3 mg/kg [1, 6] [%] | response vs control in vivo at 30 mg/kg [1, 7] [%] | response vs control in vivo at 30 mg/kg [1, 8] [%] | response vs control in vivo at 30 mg/kg [1, 9] [%] | ΔBP 2 hours [2] [mm Hg] | ΔBP 4 hours [2] [mm Hg] | ΔHR 2 hours [2] [beats per minute] | ΔHR 4 hours [2] [beats per minute] | Average Dose Shift [3, 10] | antihypertensive effect (in words) [2] | other results
6 | 108 | > 1000 | NS(=O)(=O)c1cc2c(cc1Cl)CN(CCCN1CCN(c3cccc(C(F)(F)F)c3)CC1)C2=O [Example IX, 6-chloro-2,3-dihydro-3-oxo-2-[3-[4-[3-(trifluoromethyl)phenyl]-1-piperazinyl]propyl]-1H-isoindole-5-sulfonamide hydrochloride hemihydrate] | 2.99 | 3.67 | 106 | 127 | 102 | 140 | 212 | 184 | -34 ± 14 | -32 ± 10 | 6 ± 17 | 0 ± 14 | 6 ± 0.6 | good antihypertensive effect without significantly affecting heart rate | in vivo α blocking activity (in words) [3]: weakly active; Average Dose Shift ([3]; iv): 2.2; ED50 ([3]; iv): 11.3
7 | 16 | 666 | Cl.NS(=O)(=O)c1cc2c(cc1Cl)CN(CCCN1CCN(c3ccccc3)CC1)C2=O.O [Example X, 6-chloro-2,3-dihydro-3-oxo-2-[3-(4-phenyl-1-piperazinyl)propyl]-1H-isoindole-5-sulfonamide hydrochloride hydrate] | 3.19 | 2.83 | 121 | 138 | 124 | 157 | 163 | 153 | – | – | – | – | – | good antihypertensive effect without significantly affecting heart rate | peak change at 2 hours in ΔBP [2]: -34 mm Hg; in vivo α blocking activity (in words) [3]: active as in vivo α blockers; Average Dose Shift ([3]; iv): 13 ± 2; ED50 ([3]; iv): 45.0; α2 binding activity (in words) (α2): α2 binding activity

Source: patent publication US4585773A, “Isoindolinyl-alkyl-piperazines” (Bristol-Myers Company, priority 1984, dated 1986)
